Counter-ions that a name gives are not always drawn.
How the values were obtained:
SW837 = test: combination cScore with sotorasib (Bliss gap around IC50) (%PoC); higher = stronger additive effect
Protocol: (§1)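 Combination screen of 179 inhibitors with the KRAS G12C inhibitor sotorasib (AMG510) in dose matrices, CellTiter-Glo readout in NCI-H2122 (72 h), SW837 (144 h) and NCI-H358 cells. The cScore is the mean Bliss-independence gap (expected minus observed viability, in %PoC) over a 3x3 field around the IC50s of both drugs. Positive means additive, and >~10 is stated as clear additive.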

NCI-H2122 = test: as above
Protocol: as §1

| Compound | combination cScore with sotorasib (SW837) | combination cScore with sotorasib (NCI-H2122) |
| --- | --- | --- |
| Cc1cn(-c2cc(NC(=O)c3ccc(C)c(Nc4nccc(-c5cccnc5)n4)c3)cc(C(F)(F)F)c2)cn1 [Nilotinib] + C=CC(=O)N1CCN(c2nc(=O)n(-c3c(C)ccnc3C(C)C)c3nc(-c4c(O)cccc4F)c(F)cc23)[C@@H](C)C1 [sotorasib] | 14.3 | 6.86 |
| O=c1[nH]cc(F)c(=O)[nH]1 [Fluorouracil (5-FU)] + C=CC(=O)N1CCN(c2nc(=O)n(-c3c(C)ccnc3C(C)C)c3nc(-c4c(O)cccc4F)c(F)cc23)[C@@H](C)C1 [sotorasib] | 15.4 | 2.26 |
| CN[C@@H](C)C(=O)N[C@H](C(=O)N1CCC[C@H]1c1nc(C(=O)c2ccc(F)cc2)cs1)C1CCCCC1 [LCL161] + C=CC(=O)N1CCN(c2nc(=O)n(-c3c(C)ccnc3C(C)C)c3nc(-c4c(O)cccc4F)c(F)cc23)[C@@H](C)C1 [sotorasib] | -3.76 | 2.3 |
| CS(=O)(=O)c1ccc(C(=O)Nc2ccc(Cl)c(-c3ccccn3)c2)c(Cl)c1 [Vismodegib] + C=CC(=O)N1CCN(c2nc(=O)n(-c3c(C)ccnc3C(C)C)c3nc(-c4c(O)cccc4F)c(F)cc23)[C@@H](C)C1 [sotorasib] | 9.42 | 12.1 |
| Nc1nc2[nH]cc(CCc3ccc(C(=O)N[C@@H](CCC(=O)O)C(=O)O)cc3)c2c(=O)[nH]1 [Pemetrexed] + C=CC(=O)N1CCN(c2nc(=O)n(-c3c(C)ccnc3C(C)C)c3nc(-c4c(O)cccc4F)c(F)cc23)[C@@H](C)C1 [sotorasib] | 16.4 | 1.36 |
| CC(C)(C)c1nc(-c2cccc(NS(=O)(=O)c3c(F)cccc3F)c2F)c(-c2ccnc(N)n2)s1 [Dabrafenib] + C=CC(=O)N1CCN(c2nc(=O)n(-c3c(C)ccnc3C(C)C)c3nc(-c4c(O)cccc4F)c(F)cc23)[C@@H](C)C1 [sotorasib] | -2.81 | 13.3 |
| CCc1cnn2c(NCc3ccc[n+]([O-])c3)cc(N3CCCC[C@H]3CCO)nc12 + C=CC(=O)N1CCN(c2nc(=O)n(-c3c(C)ccnc3C(C)C)c3nc(-c4c(O)cccc4F)c(F)cc23)[C@@H](C)C1 [sotorasib] | 2.65 | 7.04 |
| N.N.[Cl][Pt][Cl] [Cisplatin] + C=CC(=O)N1CCN(c2nc(=O)n(-c3c(C)ccnc3C(C)C)c3nc(-c4c(O)cccc4F)c(F)cc23)[C@@H](C)C1 [sotorasib] | -10.2 | 4.22 |
| Cn1c(=O)n(-c2ccc(C(C)(C)C#N)cc2)c2c3cc(-c4cnc5ccccc5c4)ccc3ncc21 [NVP-BEZ235] + C=CC(=O)N1CCN(c2nc(=O)n(-c3c(C)ccnc3C(C)C)c3nc(-c4c(O)cccc4F)c(F)cc23)[C@@H](C)C1 [sotorasib] | 7.37 | 12 |
| COc1cc2c(Oc3ccc4[nH]c(C)cc4c3F)ncnc2cc1OCCCN1CCCC1 [Cediranib] + C=CC(=O)N1CCN(c2nc(=O)n(-c3c(C)ccnc3C(C)C)c3nc(-c4c(O)cccc4F)c(F)cc23)[C@@H](C)C1 [sotorasib] | 1.55 | 0.01 |
| C[C@@H]1CCN(C(=O)CC#N)C[C@@H]1N(C)c1ncnc2[nH]ccc12 [Tofacitinib citrate] + C=CC(=O)N1CCN(c2nc(=O)n(-c3c(C)ccnc3C(C)C)c3nc(-c4c(O)cccc4F)c(F)cc23)[C@@H](C)C1 [sotorasib] | 2.98 | 1.35 |
| COc1cc([C@@H]2c3cc4c(cc3[C@@H](O[C@@H]3O[C@@H]5CO[C@@H](C)O[C@H]5[C@H](O)[C@H]3O)[C@H]3COC(=O)[C@H]23)OCO4)cc(OC)c1O [Etoposide] + C=CC(=O)N1CCN(c2nc(=O)n(-c3c(C)ccnc3C(C)C)c3nc(-c4c(O)cccc4F)c(F)cc23)[C@@H](C)C1 [sotorasib] | 4.54 | 14.1 |
| O=c1cc(N2CCOCC2)oc2c(-c3cccc4c3sc3ccccc34)cccc12 [NU-7441] + C=CC(=O)N1CCN(c2nc(=O)n(-c3c(C)ccnc3C(C)C)c3nc(-c4c(O)cccc4F)c(F)cc23)[C@@H](C)C1 [sotorasib] | 9.27 | 15 |
| CCCC(CCC)C(=O)O [Valproic acid] + C=CC(=O)N1CCN(c2nc(=O)n(-c3c(C)ccnc3C(C)C)c3nc(-c4c(O)cccc4F)c(F)cc23)[C@@H](C)C1 [sotorasib] | -2.1 | -1.96 |
| CC1(C)CCC(CN2CCN(c3ccc(C(=O)NS(=O)(=O)c4ccc(NCC5CCOCC5)c([N+](=O)[O-])c4)c(Oc4cnc5[nH]ccc5c4)c3)CC2)=C(c2ccc(Cl)cc2)C1 [ABT-199] + C=CC(=O)N1CCN(c2nc(=O)n(-c3c(C)ccnc3C(C)C)c3nc(-c4c(O)cccc4F)c(F)cc23)[C@@H](C)C1 [sotorasib] | -2.18 | 11.2 |
| C=C(c1ccc(C(=O)O)cc1)c1cc2c(cc1C)C(C)(C)CCC2(C)C [Bexarotene] + C=CC(=O)N1CCN(c2nc(=O)n(-c3c(C)ccnc3C(C)C)c3nc(-c4c(O)cccc4F)c(F)cc23)[C@@H](C)C1 [sotorasib] | -2.93 | 14.2 |
| NC(=O)c1cnc(N[C@@H]2CCCC[C@@H]2N)nc1Nc1cccc(-n2nccn2)c1 + C=CC(=O)N1CCN(c2nc(=O)n(-c3c(C)ccnc3C(C)C)c3nc(-c4c(O)cccc4F)c(F)cc23)[C@@H](C)C1 [sotorasib] | -0.31 | 7.42 |
| O=C(/C=C\n1cnc(-c2cc(C(F)(F)F)cc(C(F)(F)F)c2)n1)NNc1cnccn1 [KPT-330] + C=CC(=O)N1CCN(c2nc(=O)n(-c3c(C)ccnc3C(C)C)c3nc(-c4c(O)cccc4F)c(F)cc23)[C@@H](C)C1 [sotorasib] | 0.325 | 3.63 |
| COc1cc(OC2CCN(C)CC2)ccc1Nc1ncc2c(n1)n(C1CCCC1)c(=O)n2C [AZ3146] + C=CC(=O)N1CCN(c2nc(=O)n(-c3c(C)ccnc3C(C)C)c3nc(-c4c(O)cccc4F)c(F)cc23)[C@@H](C)C1 [sotorasib] | 19.4 | 4.43 |
| COc1ccc(Cn2ccc3ccc(C(=O)NO)cc32)cc1 + C=CC(=O)N1CCN(c2nc(=O)n(-c3c(C)ccnc3C(C)C)c3nc(-c4c(O)cccc4F)c(F)cc23)[C@@H](C)C1 [sotorasib] | 10.9 | 0.89 |
| Cc1cn(CCN2CCN(c3ccccc3-c3cc(C#N)cc(C(=O)NCCCN4CCCC4)c3)CC2)c2ccccc12 [LLY-507] + C=CC(=O)N1CCN(c2nc(=O)n(-c3c(C)ccnc3C(C)C)c3nc(-c4c(O)cccc4F)c(F)cc23)[C@@H](C)C1 [sotorasib] | 9.15 | 0.73 |
| CCCS(=O)(=O)Nc1ccc(F)c(C(=O)c2c[nH]c3ncc(Cl)cc23)c1F [PLX4720] + C=CC(=O)N1CCN(c2nc(=O)n(-c3c(C)ccnc3C(C)C)c3nc(-c4c(O)cccc4F)c(F)cc23)[C@@H](C)C1 [sotorasib] | 2.2 | 17.4 |
| CC(C)(C(=O)NCC(F)(F)C(F)(F)F)C(=O)N[C@@H]1C(=O)Nc2ccccc2-c2ccccc21 + C=CC(=O)N1CCN(c2nc(=O)n(-c3c(C)ccnc3C(C)C)c3nc(-c4c(O)cccc4F)c(F)cc23)[C@@H](C)C1 [sotorasib] | 21.5 | 2.56 |
| O=C(O)CCCCC(CCSCc1ccccc1)SCc1ccccc1 (centres undefined) [CPI-613] + C=CC(=O)N1CCN(c2nc(=O)n(-c3c(C)ccnc3C(C)C)c3nc(-c4c(O)cccc4F)c(F)cc23)[C@@H](C)C1 [sotorasib] | -5.35 | 19 |
| CC1=C(/C=C/C(C)=C/C=C/C(C)=C/C(=O)O)C(C)(C)CCC1 [Tretinoin] + C=CC(=O)N1CCN(c2nc(=O)n(-c3c(C)ccnc3C(C)C)c3nc(-c4c(O)cccc4F)c(F)cc23)[C@@H](C)C1 [sotorasib] | 15.7 | 10.5 |
| CN(C)c1ccccc1CN1CCCN(Cc2ccccc2N(C)C)C1c1ccncc1 [GANT61] + C=CC(=O)N1CCN(c2nc(=O)n(-c3c(C)ccnc3C(C)C)c3nc(-c4c(O)cccc4F)c(F)cc23)[C@@H](C)C1 [sotorasib] | -1.32 | -3.17 |
| O=C(O)C(=O)O.[NH-][C@@H]1CCCC[C@H]1[NH-].[Pt+2] [Oxaliplatin] + C=CC(=O)N1CCN(c2nc(=O)n(-c3c(C)ccnc3C(C)C)c3nc(-c4c(O)cccc4F)c(F)cc23)[C@@H](C)C1 [sotorasib] | 3.16 | 13.8 |

— the supplement of paper PMC11424490
